# Active and inactive are the calls of the source. The calls are words filed in the database; no cut-off is given here.
# What was measured:
# [1] = Induction of osteogenesis in Wistar rat bone marrow-derived MSC assessed as increase in bone formation by measuring fold change at 1 uM measured after 14 days with fresh culture medium replacement for every 3 days by Alizarin red staining based analysis; type: functional; conditions: time 14 day
# [2] = system: MSC; assay: Induction of osteogenesis in Wistar rat bone marrow-derived MSC assessed as increase in calcium nodes at 1 uM measured after 14 days with fresh culture medium replacement for every 3 days by Alizarin red staining based analysis; type: functional, cell-based; conditions: time 14.0 day
# [3] = system: MSC; assay: Induction of osteogenesis in Wistar rat bone marrow-derived MSC assessed as increase in ALP at 1 uM measured after 1 week with fresh culture medium replacement for every 3 days by ALP staining based analysis; type: functional, cell-based; conditions: time 1.0 weeks
# [4] = system: RAW264.7; assay: Inhibition of RANKL-induced osteoclastogenesis in mouse RAW264 cells assessed as number of osteoclast at 1 uM incubated for 5 days by TRAP staining based microscopic analysis (reference value: 95); type: functional; conditions: time 5 day
# [5] = Induction of osteogenesis in Wistar rat bone marrow-derived MSC assessed as increase in bone formation by measuring fold change at 0.4 uM measured after 14 days with fresh culture medium replacement for every 3 days by Alizarin red staining based analysis; type: functional; conditions: time 14 day
# [6] = Cytotoxicity against Wistar rat bone marrow-derived MSC assessed as reduction in cell viability at 0.4 to 10 uM after 72 hrs by MTS assay; type: toxicity, cell-based; conditions: dose 0.4-10 µM
# [7] = system: MSC; assay: Induction of osteogenesis in Wistar rat bone marrow-derived MSC assessed as increase in increase in calcium nodes at 0.4 uM measured after 14 days with fresh culture medium replacement for every 3 days by Alizarin red staining based analysis; type: functional, cell-based; conditions: time 14.0 day
# [8] = system: MSC; assay: Induction of osteogenesis in Wistar rat bone marrow-derived MSC assessed as increase in ALP at 0.4 uM measured after 1 week with fresh culture medium replacement for every 3 days by ALP staining based analysis; type: functional, cell-based; conditions: time 1.0 weeks
# [9] = system: RAW264.7; assay: Cytotoxicity against mouse RAW264.7 cells assessed as reduction in cell viability at 1 to 10 uM after 72 hrs by MTS assay; type: toxicity, cell-based; conditions: raw264.7, 72 h, dose 1-10 µM
# [10] = system: RAW264.7; assay: Inhibition of RANKL-induced osteoclastogenesis in mouse RAW264 cells assessed as number of osteoclast at 5 uM incubated for 5 days by TRAP staining based microscopic analysis (reference value: 95); type: functional; conditions: time 5 day
# [11] = system: RAW264.7; assay: Inhibition of RANKL-induced osteoclastogenesis in mouse RAW264 cells assessed as number of osteoclast at 10 uM incubated for 5 days by TRAP staining based microscopic analysis (reference value: 95); type: functional; conditions: time 5 day
# [12] = system: MSC; assay: Activation of BMP/Smad signaling pathway in Wistar rat bone marrow-derived MSC assessed as increase in bmp2 mRNA expression at 0.4 uM incubated for 14 days by RT-qPCR analysis; type: cell-based; conditions: filed as activator, time 14.0 day
# [13] = system: MSC; assay: Activation of BMP/Smad signaling pathway in Wistar rat bone marrow-derived MSC assessed as increase in bmp5 mRNA expression at 0.4 uM incubated for 14 days by RT-qPCR analysis; type: cell-based; conditions: filed as activator, time 14.0 day
# [14] = system: MSC; assay: Activation of BMP/Smad signaling pathway in Wistar rat bone marrow-derived MSC assessed as increase in smad1 mRNA expression at 0.4 uM incubated for 14 days by RT-qPCR analysis; type: cell-based; conditions: filed as activator, time 14.0 day
# [15] = system: MSC; assay: Activation of BMP/Smad signaling pathway in Wistar rat bone marrow-derived MSC assessed as increase in smad4 mRNA expression at 0.4 uM incubated for 14 days by RT-qPCR analysis; type: cell-based; conditions: filed as activator, time 14.0 day
# [16] = system: MSC; assay: Activation of BMP/Smad signaling pathway in Wistar rat bone marrow-derived MSC assessed as increase in smad9 mRNA expression at 0.4 uM incubated for 14 days by RT-qPCR analysis; type: cell-based; conditions: filed as activator, time 14.0 day
# [17] = system: MSC; assay: Activation of BMP/Smad signaling pathway in Wistar rat bone marrow-derived MSC assessed as increase in alp mRNA expression at 0.4 uM incubated for 14 days by RT-qPCR analysis; type: cell-based; conditions: filed as activator, time 14.0 day
# [18] = system: RAW264.7; assay: Inhibition of RANK/RANKL/OPG signaling pathway in mouse RAW264.7 cells assessed as decrease in RANKL-stimulated RANK protein expression level at 1 uM after 5 days by Western blot analysis; type: cell-based; conditions: time 5.0 day
# [19] = system: RAW264.7; assay: Inhibition of RANK/RANKL/OPG signaling pathway in mouse RAW264.7 cells assessed as decrease in RANKL-stimulated NFATc-1 protein expression level at 1 uM after 5 days by Western blot analysis; type: cell-based; conditions: time 5.0 day
# [20] = system: RAW264.7; assay: Inhibition of RANK/RANKL/OPG signaling pathway in RANKL-stimulated mouse RAW264.7 cells assessed as increase in OPG protein expression level at 1 uM after 5 days by Western blot analysis; type: cell-based; conditions: time 5.0 day
# [21] = system: RAW264.7; assay: Inhibition of RANK/RANKL/OPG signaling pathway in RANKL-stimulated mouse RAW264.7 cells assessed as increase in c-Jun protein expression level at 1 uM after 5 days by Western blot analysis; type: cell-based; conditions: time 5.0 day
# [22] = system: Mus musculus; assay: Anti-osteoporosis activity in OVX-induced osteoporosis ICR mouse model assessed as increase in bone mineral density by measuring fold change in femur at 10 mg/kg, ip and measured after 12 weeks by micro-CT analysis; type: functional
# [23] = system: Mus musculus; assay: Anti-osteoporosis activity in OVX-induced osteoporosis ICR mouse model assessed as increase in BV/TV by measuring fold change in femur at 10 mg/kg, ip and measured after 12 weeks by micro-CT analysis; type: functional
# [24] = system: Mus musculus; assay: Anti-osteoporosis activity in OVX-induced osteoporosis ICR mouse model assessed as increase in BV/TV by measuring fold change in femur at 20 mg/kg, IG and measured after 12 weeks by micro-CT analysis; type: functional
# [25] = system: Mus musculus; assay: Anti-osteoporosis activity in OVX-induced osteoporosis ICR mouse model assessed as increase in trabecular number by measuring fold change in femur at 10 mg/kg, ip and measured after 12 weeks by micro-CT analysis; type: functional
# [26] = system: Mus musculus; assay: Anti-osteoporosis activity in OVX-induced osteoporosis ICR mouse model assessed as increase in trabecular number in femur at 20 mg/kg, IG and measured after 12 weeks by micro-CT analysis; type: functional, organism-based
# [27] = system: Mus musculus; assay: Anti-osteoporosis activity in OVX-induced osteoporosis ICR mouse model assessed as increase in trabecular thickness by measuring fold change in femur at 10 mg/kg, ip and measured after 12 weeks by micro-CT analysis; type: functional
# [28] = system: Mus musculus; assay: Anti-osteoporosis activity in OVX-induced osteoporosis ICR mouse model assessed as decrease in trabecular spacing by in femur at 10 mg/kg, ip and measured after 12 weeks by micro-CT analysis relative to control; type: functional; design: scale not given: the % may be the effect or the level left
# [29] = system: Mus musculus; assay: Anti-osteoporosis activity in OVX-induced osteoporosis ICR mouse model assessed as decrease in trabecular spacing by in femur at 20 mg/kg, IG and measured after 12 weeks by micro-CT analysis relative to control; type: functional
# [30] = system: Mus musculus; assay: Anti-osteoporosis activity in OVX-induced osteoporosis ICR mouse model assessed as increase in bone mineral density by measuring fold change in femur at 20 mg/kg, IG and measured after 12 weeks by micro-CT analysis; type: functional
# [31] = system: Mus musculus; assay: Anti-osteoporosis activity in OVX-induced osteoporosis ICR mouse model assessed as increase in trabecular thickness by measuring fold change in femur at 20 mg/kg, IG and measured after 12 weeks by micro-CT analysis; type: functional
# [32] = system: RAW264.7; assay: Inhibition of RANKL-induced osteoclastogenesis in mouse RAW264 cells assessed as decrease in number of osteoclast at 1 to 10 uM incubated for 5 days by TRAP staining based microscopic analysis; type: functional, cell-based; conditions: dose 1-10 µM, time 5.0 day
# [33] = system: Mus musculus; assay: Anti-osteoporosis activity in OVX-induced osteoporosis ICR mouse model assessed as increase in trabecular number by measuring fold change in femur at 20 mg/kg, IG and measured after 12 weeks by micro-CT analysis; type: functional
# [34] = Cytotoxicity against Wistar rat bone marrow-derived MSC assessed as inhibition of cell viability at 10 uM after 72 hrs by MTS assay relative to control; type: toxicity, cell-based; conditions: bone marrow-derived mesenchymal stem cells (MSC), read-out: INH
# [35] = Cytotoxicity against Wistar rat bone marrow-derived MSC assessed as reduction in cell viability at 0.4 to 2 uM after 72 hrs by MTS assay; type: toxicity, cell-based; conditions: dose 0.4-2 µM
smiles,measurement,setting,value
COc1ccc(-c2coc3cc(O)ccc3c2=O)cc1 [FORMONONETIN],fold change (FC),[1],1.4
same,Activity,[2],Active
same,Activity,[3],Active
same,Activity,[4],66
COc1ccc(-c2coc3c4c(ccc3c2=O)OCN(Cc2ccoc2)C4)cc1,fold change (FC),[5],2.3
same,Activity,[6],Non-Toxic
same,Activity,[7],Active
same,Activity,[8],Active
same,Activity,[9],Non-Toxic
same,Activity,[4],30
same,Activity,[10],24
same,Activity,[11],29
same,Activity,[12],Active
same,Activity,[13],Active
same,Activity,[14],Active
same,Activity,[15],Active
same,Activity,[16],Active
same,Activity,[17],Active
same,inhibition,[18],Active
same,inhibition,[19],Active
same,inhibition,[20],Active
same,inhibition,[21],Active
same,fold change (FC),[22],15.2
same,fold change (FC),[23],9.25
same,fold change (FC),[24],2.13
same,fold change (FC),[25],2.17
same,Activity,[26],inactive
same,fold change (FC),[27],1.9
same,Activity,[28],37%
same,Activity,[29],inactive
CCCCCCCCNCc1c(O)ccc2c(=O)c(-c3ccc(OC)cc3)coc12,fold change (FC),[5],1.1
same,Activity,[6],Non-Toxic
COc1ccc(-c2coc3c4c(ccc3c2=O)OCN(C2CCCCC2)C4)cc1,fold change (FC),[5],0.8
same,Activity,[6],Non-Toxic
CCCCCCN1COc2ccc3c(=O)c(-c4ccc(OC)cc4)coc3c2C1,fold change (FC),[5],1.2
same,Activity,[6],Non-Toxic
CC(C)Oc1ccc2c(=O)c(-c3ccccc3)coc2c1 [IPRIFLAVONE],fold change (FC),[22],1.9
same,fold change (FC),[30],3.3
same,fold change (FC),[24],2.3
same,Activity,[26],inactive
same,fold change (FC),[31],1.17
same,Activity,[28],inactive
same,Activity,[29],inactive
CCCCN1COc2ccc3c(=O)c(-c4ccc(OC)cc4)coc3c2C1,fold change (FC),[5],1.9
same,Activity,[6],Non-Toxic
same,Activity,[7],Active
same,Activity,[8],Active
same,Activity,[9],Non-Toxic
same,inhibition,[32],inactive
same,inhibition,[18],inactive
same,inhibition,[19],inactive
same,inhibition,[20],inactive
same,inhibition,[21],inactive
same,fold change (FC),[22],10.3
same,fold change (FC),[30],3.3
same,fold change (FC),[23],6.47
same,fold change (FC),[24],2.2
same,fold change (FC),[25],1.94
same,fold change (FC),[33],1.42
same,fold change (FC),[27],1.51
same,Activity,[28],43%
same,Activity,[29],63%
COc1ccc(-c2coc3c4c(ccc3c2=O)OCN(Cc2ccccc2)C4)cc1,fold change (FC),[5],1
same,Activity,[6],Non-Toxic
COc1ccc(-c2coc3c(C=O)c(O)ccc3c2=O)cc1,fold change (FC),[5],1.3
same,"cytotoxicity at 72 h, 10 µM",[34],15.5%
same,Activity,[35],Non-Toxic

# — ChEMBL document CHEMBL5584295, “Formononetin Derivative for Osteoporosis by Simultaneous Regulating Osteoblast and Osteoclast” (J Nat Prod, 2024)
